# From patent USRE40086E1, “Method for treating bacterial infection with novel 7-substituted-9-substituted amino 6-demethyl-6-deoxytetracyclines” (Wyeth Holdings Corporation, priority 1991, dated 2008)
# “Also recorded” adds a separate entry of the source.
# How the values were obtained:
# [1] = tested on: tetracycline sensitive and resistant Gram-positive and Gram-negative bacteria; assay: In vitro antibacterial evaluation, MIC by agar dilution (general, Tables I-V and IA); type: cell-based; settings: summary of Tables I-V
# [2] = tested on: S. aureus UBMS 88-5 (tetM); assay: MIC, agar dilution; type: cell-based; settings: S. aureus UBMS 88-5 (tetM)
# [3] = tested on: S. aureus UBMS 88-4 (Sensitive); assay: MIC, agar dilution; type: cell-based; settings: S. aureus UBMS 88-4 (Sensitive)
# [4] = tested on: S. aureus UBMS 90-1 (tetM); assay: MIC, agar dilution; type: cell-based; settings: S. aureus UBMS 90-1 (tetM)
# [5] = tested on: S. aureus UBMS 90-2 (tetM); assay: MIC, agar dilution; type: cell-based; settings: Staphylococcus aureus, S. aureus UBMS 90-2 (tetM)
# [6] = tested on: S. aureus UBMS 90-3 (Sensitive); assay: MIC, agar dilution; type: cell-based; settings: Staphylococcus aureus, S. aureus UBMS 90-3 (Sensitive)
# [7] = tested on: S. aureus UBMS 88-7 (tetK); assay: MIC, agar dilution; type: cell-based; settings: Staphylococcus aureus
# [8] = tested on: S. aureus IVES 2943 (meth. resistant); assay: MIC, agar dilution; type: cell-based; settings: Staphylococcus aureus
# [9] = tested on: S. aureus IVES 1983 (meth. resistant); assay: MIC, agar dilution; type: cell-based; settings: Staphylococcus aureus
# [10] = tested on: S. aureus ATCC 29213 (Sensitive); assay: MIC, agar dilution; type: cell-based; settings: Staphylococcus aureus, ATCC29213
# [11] = tested on: S. aureus Smith (Sensitive); assay: MIC, agar dilution; type: cell-based; settings: Staphylococcus aureus
# [12] = tested on: S. haemolyticus AVAH 88-3; assay: MIC, agar dilution; type: cell-based; settings: Staphylococcus haemolyticus, AVAH883
# [13] = tested on: E. faecalis 12201; assay: MIC, agar dilution; type: cell-based; settings: Enterococcus faecalis, 12201
# [14] = tested on: E. faecalis ATCC 29212; assay: MIC, agar dilution; type: cell-based; settings: Enterococcus faecalis, ATCC29212
# [15] = tested on: E. coli UBMS 88-1 (tetB); assay: MIC, agar dilution; type: cell-based; settings: Escherichia coli, E. coli UBMS 88-1 (tetB)
# [16] = tested on: E. coli UBMS 88-2 (Sensitive); assay: MIC, agar dilution; type: cell-based; settings: Escherichia coli
# [17] = tested on: E. coli UBMS 89-1 (tetM); assay: MIC, agar dilution; type: cell-based; settings: Escherichia coli
# [18] = tested on: E. coli UBMS 89-2 (Sensitive); assay: MIC, agar dilution; type: cell-based; settings: Escherichia coli
# [19] = tested on: E. coli ATCC 25922; assay: MIC, agar dilution; type: cell-based; settings: Escherichia coli, ATCC25922
# [20] = tested on: E. coli UBMS 90-4 (tetM); assay: MIC, agar dilution; type: cell-based; settings: Escherichia coli
# [21] = tested on: N. gonorrhoeae IL 611 (Sensitive); assay: MIC, agar dilution; type: cell-based; settings: Neisseria gonorrhoeae
# [22] = tested on: N. gonorrhoeae 6418 (tetM); assay: MIC, agar dilution; type: cell-based; settings: Neisseria gonorrhoeae
# [23] = tested on: E. faecalis UBMS 90-6 (tetM); assay: MIC, agar dilution; type: cell-based; settings: Enterococcus faecalis
# [24] = tested on: E. faecalis UBMS 90-7 (tetM); assay: MIC, agar dilution; type: cell-based; settings: Enterococcus faecalis
# [25] = tested on: Neisseria gonorrhoeae; assay: MIC against clinical isolates (Table V, A and O); type: cell-based
# [26] = tested on: Haemophilus influenzae; assay: MIC against clinical isolates (Table V, A and O); type: cell-based; settings: (18) tested
# [27] = tested on: Enterococcus faecalis; assay: MIC against clinical isolates (Table V, A and O); type: cell-based
# [28] = tested on: Enterococcus faecium; assay: MIC against clinical isolates (Table V, A and O); type: cell-based
# [29] = tested on: Escherichia coli; assay: MIC against clinical isolates (Table V, A and O); type: cell-based; settings: Escherichia coli
# [30] = tested on: Klebsiella pneumoniae; assay: MIC against clinical isolates (Table V, A and O); type: cell-based; settings: Klebsiella pneumoniae
# [31] = tested on: Proteus spp. indole+; assay: MIC against clinical isolates (Table V, A and O); type: cell-based
# [32] = tested on: Bacteroides spp.; assay: MIC against clinical isolates (Table V, A and O); type: cell-based
# [33] = tested on: E. coli cell-free ribosomes, strain MRE 600 (TC Sensitive Host); assay: E. coli in vitro cell free protein translation system (Table VI); type: biochemical
# [34] = tested on: E. coli cell-free ribosomes, strain MRE 600 (tetM) (Tet M Host); assay: as above; type: biochemical
# [35] = tested on: S. aureus UBMS 90-1; assay: In vivo antibacterial evaluation, acute lethal infection in mice; settings: Staphylococcus aureus, UBMS901, sc, read-out: ED50, median effective dose protecting 50% of the infected mice; mice infected with S. aureus UBMS 90-1 (tetM), single subcutaneous dosing
# Text: (§1) In Vivo Antibacterial Evaluation (Table VII)
# [36] = tested on: S. aureus UBMS 90-2; assay: as above; settings: Staphylococcus aureus, UBMS902, sc, read-out: ED50, median effective dose protecting 50% of the infected mice; mice infected with S. aureus UBMS 90-2 (tetM), single subcutaneous dosing
# Text: as §1
compound,measurement,setting,value
CN(C)c1cc(NC=O)c(O)c2c1CC1CC3C(N(C)C)C(O)=C(C(N)=O)C(=O)C3(O)C(O)=C1C2=O (stereo not shown),antibacterial activity in vitro (in words),[1],good in vitro activity against tetracycline resistant strains containing the tetM resistance determinant; also recorded: superior to that of minocycline against other isolates
"CN(C)c1cc(NC=O)c(O)c2c1CC1CC3C(N(C)C)C(O)=C(C(N)=O)C(=O)C3(O)C(O)=C1C2=O (stereo not shown) [Compound A, 7-(Dimethylamino)-9-(formylamino)-6-demethyl-6-deoxytetracycline]",MIC,[2],0.03 µg/mL
same,MIC,[2]; Staphylococcus aureus,0.06 µg/mL
same,MIC,[3],<0.015 µg/mL
same,MIC,[3]; Staphylococcus aureus,0.015 µg/mL
same,MIC,[4],0.12 µg/mL
same,MIC,[4]; Staphylococcus aureus,0.06 µg/mL
same,MIC,[5],0.03 µg/mL
same,MIC,[6],≤ 0.015 µg/mL
same,MIC,[7],2 µg/mL
same,MIC,[8],4 µg/mL
same,MIC,[9],8 µg/mL
same,MIC,[10],≤ 0.015 µg/mL
same,MIC,[11],≤ 0.015 µg/mL
same,MIC,[12],0.03 µg/mL
same,MIC,[13],0.12 µg/mL
same,MIC,[14],≤ 0.015 µg/mL
same,MIC,[15],32 µg/mL
same,MIC,[16],0.12 µg/mL
same,MIC,[17],0.12 µg/mL
same,MIC,[18],0.12 µg/mL
same,MIC,[19],0.06 µg/mL
same,MIC,[20],1 µg/mL
same,MIC,[21],0.06 µg/mL
same,MIC,[22],1 µg/mL
same,MIC,[23],0.12 µg/mL
same,MIC,[24],0.5 µg/mL
same,MIC50,[25]; Neisseria gonorrhoeae,0.03 µg/mL
same,MIC90,[25]; Neisseria gonorrhoeae,1 µg/mL
same,MIC Range,"[25]; Neisseria gonorrhoeae clinical isolates, (9) tested",0.015 to 1.00 µg/mL
same,MIC50,[26],0.06 µg/mL
same,MIC90,[26],0.06 µg/mL
same,MIC Range,[26],<0.008 to 0.06 µg/mL
same,MIC50,[27]; Enterococcus faecalis,0.12 µg/mL
same,MIC90,[27]; Enterococcus faecalis,1 µg/mL
same,MIC Range,"[27]; Enterococcus faecalis clinical isolates, (14) tested",<0.015 to 2.00 µg/mL
same,MIC50,[28]; Enterococcus faecium,0.06 µg/mL
same,MIC90,[28]; Enterococcus faecium,2 µg/mL
same,MIC Range,"[28]; Enterococcus faecium clinical isolates, (11) tested",<0.015 to 2.00 µg/mL
same,MIC50,[29],0.25 µg/mL
same,MIC90,[29],> 32 µg/mL
same,MIC50,[30],0.5 µg/mL
same,MIC90,[30],0.5 µg/mL
same,MIC50,[31],2 µg/mL
same,MIC90,[31],> 32 µg/mL
same,MIC50,[32]; Bacteroides,0.25 µg/mL
same,MIC90,[32]; Bacteroides,2 µg/mL
same,MIC Range,"[32]; Bacteroides spp. clinical isolates, (15) tested",>0.15 to 4.00 µg/mL
same,"IC50, concentration of antibiotic required to inhibit protein synthesis by 50% compared to a drug-free control",[33],<0.3 µg/mL
same,"IC50, concentration of antibiotic required to inhibit protein synthesis by 50% compared to a drug-free control",[34],0.4 µg/mL
same,ED50,[35],0.22 mg/kg
same,ED50,[36],0.49 mg/kg
